The record followed here is patent publication EP4624472A1, “DEGRADER INCLUDING NOVEL C-MET PROTEIN LIGAND AND PHARMACEUTICAL COMPOSITION INCLUDING SAME” (Innocure Therapeutics, Inc., priority 2022, dated 2024).

Assay [1] addresses T1, c-MET (Homo sapiens, UniProt P08581). Description: c-MET protein degradation (Simple Western) in SNU-638 cells. Format: cell-based. More on the design: To evaluate the degradation efficacy of the compounds of the present invention for c-MET expressed in cells; endogenous in cells. To be noted: SNU-638, gastric cancer cell line treated 24 hours; c-MET expression normalized to GAPDH, 0.1% DMSO = 100%; read-out: In vitro cell viability assay (nM) SNU-638 DC50. As to the method:
(§1) The c-MET overexpressing human gastric cancer cell lines MKN45 and SNU638 were cultured in RPMI medium with 10% fetal bovine serum, penicillin (100 U/ml), and streptomycin ([…]), and the c-MET exon 14 skipping mutant human gastric cancer cell line Hs746T was cultured in DMEM media. The c-MET overexpressing human lung cancer cell line EBC-1 was cultured in MEM media with the addition of 10% fetal bovine serum, penicillin (100U/ml), and streptomycin ([…]). The normal cell line WI-38 derived from human lung tissue was cultured in EMEM medium with the addition of 10% fetal bovine serum, penicillin (100U/ml), and streptomycin ([…]).
(§2) The compound synthesized in accordance with the present invention was prepared with a raw material solution of 10 mM dissolved in DMSO (dimethyl sulfoxide), and was sequentially diluted and processed.
(§3) To evaluate the degradation efficacy of the compounds of the present invention for c-MET expressed in cells, cells were dispensed in a 12-well plate at a concentration of 2 × 10^5 cells/well, and then gastric cancer cell lines were treated with samples for 24 hours and lung cancer cell lines were treated for 48 hours.
(§4) To perform a western blotting assay to confirm protein expression, cells treated with a compound treated with 40 µL of RIPA buffer with a protease inhibitor for 30 minutes, collected cell lysate using a scraper on ice, and centrifuged at 4°C 15,000 rpm for 30 min to obtain a protein-containing supernatant.
(§5) Protein expression was then measured using the Simple Western Automated Western Blot System Abby instrument using 3 µg of protein for each sample. SDS and heat-induced denaturation proteins were separated by molecular weight, attached to the capillary, reacted with anti-c-MET or anti-GAPDH antibodies, which are primary antibodies, and then reacted with HRP-conjugated secondary antibodies, and analyzed the protein expression signal with compass software.
(§6) Protein expression was normalized based on the expression value of GAPDH, and the protein expression amount in each sample was measured as a percentage (%) based on 100% of samples treated with 0.1% DMSO carrier, and DC50 (concentration of a compound where 50% protein inhibition is achieved) was calculated from the change in protein expression amount due to compound treatment.

Assay [2] has as its system EBC-1. As to the kind of experiment: In vitro cell viability assay (cancer cell anti-proliferative activity), EBC-1. To be noted: Homo sapiens; EBC-1 cells, treated 72 hours; read-out: In vitro cell viability assay (nM) EBC-1 IC50. The format is cell-based, human. As to the method: as §1, §2
(§7) In order to evaluate the inhibitory activity on cell growth, cells were dispensed in a 96-well plate at a concentration of 5,000 cells/well and then treated with the compound of the present invention prepared at various concentrations for 72 hours. The absorbance measurement at 450 nm was calculated using the GraphicPad Prism 8.0 software. The IC50 value (concentration of the compound achieving 50% cytostatic inhibition) is the average value of the measured results. […]

Assay [3] has as its system SNU-638. As to the kind of experiment: In vitro cell viability assay (cancer cell anti-proliferative activity), SNU-638. To be noted: Homo sapiens; SNU-638 cells, treated 72 hours; read-out: In vitro cell viability assay (nM) SNU-638 IC50. The format is cell-based, human. As to the method: as §1, §2, §7
Assay [4] relates to Hs746T. Description: In vitro cell viability assay (cancer cell anti-proliferative activity), Hs746T. The format is cell-based. To be noted: Homo sapiens; Hs746T cells, treated 72 hours. As to the method:
as §1, §2, §7

Assay [5] concerns the target T1, c-MET. As to the kind of experiment: c-MET protein degradation (Simple Western) in EBC-1 cells. Further details: To evaluate the degradation efficacy of the compounds of the present invention for c-MET expressed in cells; endogenous in cells; host or cells: EBC-1 (human lung cancer cell line). The format is cell-based. To be noted: EBC-1, lung cancer cell line treated 48 hours; c-MET expression normalized to GAPDH, 0.1% DMSO = 100%; read-out: In vitro cell viability assay (nM) EBC-1 DC50. As to the method:
as §1, §2, §3, §4, §5, §6

Assay [6] addresses T2, c-MET (Homo sapiens, UniProt P08581, DEL964-1010).
T2 construct: To evaluate the degradation efficacy of the compounds of the present invention for c-MET expressed in cells; endogenous in cells; host or cells: Hs746T (human gastric cancer cell line)
As to the kind of experiment: c-MET protein degradation (Simple Western) in Hs746T cells. To be noted: Hs746T (c-MET exon 14 skipping mutant), gastric cancer cell line treated 24 hours; c-MET expression normalized to GAPDH, 0.1% DMSO = 100%; read-out: In vitro cell viability assay (nM) Hs746T DC50. The format is cell-based. As to the method: as §1, §2, §3, §4, §5, §6

Bounds are passed on as bounds.

T1 sequence (P08581 25-1390): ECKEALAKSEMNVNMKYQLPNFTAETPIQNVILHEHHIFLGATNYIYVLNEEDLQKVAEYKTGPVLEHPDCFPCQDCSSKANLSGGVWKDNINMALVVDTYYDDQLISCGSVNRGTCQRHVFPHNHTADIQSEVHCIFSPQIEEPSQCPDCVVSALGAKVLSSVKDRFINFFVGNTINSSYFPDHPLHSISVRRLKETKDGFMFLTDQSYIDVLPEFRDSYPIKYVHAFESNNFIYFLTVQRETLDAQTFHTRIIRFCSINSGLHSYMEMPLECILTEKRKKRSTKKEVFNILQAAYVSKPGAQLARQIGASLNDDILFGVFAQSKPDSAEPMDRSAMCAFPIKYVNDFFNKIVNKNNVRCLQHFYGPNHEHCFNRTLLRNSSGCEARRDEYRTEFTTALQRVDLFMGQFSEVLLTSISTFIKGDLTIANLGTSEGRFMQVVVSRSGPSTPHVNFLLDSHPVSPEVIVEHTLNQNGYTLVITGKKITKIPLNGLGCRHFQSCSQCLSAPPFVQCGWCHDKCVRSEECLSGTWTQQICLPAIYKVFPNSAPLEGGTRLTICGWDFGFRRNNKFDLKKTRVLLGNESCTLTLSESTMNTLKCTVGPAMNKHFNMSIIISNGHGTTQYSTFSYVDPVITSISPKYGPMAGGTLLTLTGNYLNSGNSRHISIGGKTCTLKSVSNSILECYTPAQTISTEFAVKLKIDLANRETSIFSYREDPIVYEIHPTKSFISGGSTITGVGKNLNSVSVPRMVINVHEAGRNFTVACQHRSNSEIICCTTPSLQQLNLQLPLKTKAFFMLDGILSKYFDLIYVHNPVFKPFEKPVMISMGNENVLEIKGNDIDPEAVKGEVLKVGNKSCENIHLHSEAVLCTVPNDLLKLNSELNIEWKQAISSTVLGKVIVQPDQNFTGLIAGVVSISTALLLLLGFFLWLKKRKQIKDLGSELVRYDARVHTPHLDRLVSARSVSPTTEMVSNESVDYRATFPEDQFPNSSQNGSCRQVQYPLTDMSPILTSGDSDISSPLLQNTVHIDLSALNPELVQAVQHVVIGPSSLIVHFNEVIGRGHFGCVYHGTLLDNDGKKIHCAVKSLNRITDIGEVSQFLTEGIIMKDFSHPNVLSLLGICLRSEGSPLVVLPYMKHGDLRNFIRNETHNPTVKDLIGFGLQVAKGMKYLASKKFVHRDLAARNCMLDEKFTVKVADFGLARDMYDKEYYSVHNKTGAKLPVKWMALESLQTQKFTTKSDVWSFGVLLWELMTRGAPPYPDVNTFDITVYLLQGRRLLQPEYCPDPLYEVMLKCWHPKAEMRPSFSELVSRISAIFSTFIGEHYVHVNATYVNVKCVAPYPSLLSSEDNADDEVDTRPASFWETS
T2 sequence (P08581 with tags, fused parts or gaps DEL964-1010 limits assumed): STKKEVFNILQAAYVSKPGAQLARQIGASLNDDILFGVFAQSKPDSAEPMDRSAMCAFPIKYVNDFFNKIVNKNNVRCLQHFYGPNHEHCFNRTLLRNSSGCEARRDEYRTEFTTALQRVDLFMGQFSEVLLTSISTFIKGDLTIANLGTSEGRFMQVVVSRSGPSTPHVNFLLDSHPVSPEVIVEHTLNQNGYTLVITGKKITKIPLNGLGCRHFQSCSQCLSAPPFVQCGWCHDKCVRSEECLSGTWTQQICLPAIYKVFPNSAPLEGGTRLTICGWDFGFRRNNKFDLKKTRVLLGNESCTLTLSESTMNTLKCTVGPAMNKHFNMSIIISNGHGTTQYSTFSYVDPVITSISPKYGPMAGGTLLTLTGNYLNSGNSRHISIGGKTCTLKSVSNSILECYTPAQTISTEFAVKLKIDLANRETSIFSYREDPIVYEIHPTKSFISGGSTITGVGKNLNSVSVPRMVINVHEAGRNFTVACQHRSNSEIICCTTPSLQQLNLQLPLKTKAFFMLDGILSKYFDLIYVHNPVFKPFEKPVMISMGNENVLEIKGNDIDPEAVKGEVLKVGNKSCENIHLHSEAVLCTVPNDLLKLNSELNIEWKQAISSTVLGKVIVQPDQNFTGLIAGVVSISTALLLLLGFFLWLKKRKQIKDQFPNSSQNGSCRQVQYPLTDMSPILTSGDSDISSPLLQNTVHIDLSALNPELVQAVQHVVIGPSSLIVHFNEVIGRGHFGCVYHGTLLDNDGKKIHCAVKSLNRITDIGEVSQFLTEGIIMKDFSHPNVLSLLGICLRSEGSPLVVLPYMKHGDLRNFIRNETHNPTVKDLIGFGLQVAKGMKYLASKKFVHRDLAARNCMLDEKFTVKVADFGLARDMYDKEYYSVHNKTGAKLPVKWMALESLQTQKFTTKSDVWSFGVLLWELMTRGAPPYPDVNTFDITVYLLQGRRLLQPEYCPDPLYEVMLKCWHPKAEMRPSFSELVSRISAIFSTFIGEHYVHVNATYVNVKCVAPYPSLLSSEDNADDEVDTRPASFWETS
T2 sequence (P08581 25-307 partner limits assumed): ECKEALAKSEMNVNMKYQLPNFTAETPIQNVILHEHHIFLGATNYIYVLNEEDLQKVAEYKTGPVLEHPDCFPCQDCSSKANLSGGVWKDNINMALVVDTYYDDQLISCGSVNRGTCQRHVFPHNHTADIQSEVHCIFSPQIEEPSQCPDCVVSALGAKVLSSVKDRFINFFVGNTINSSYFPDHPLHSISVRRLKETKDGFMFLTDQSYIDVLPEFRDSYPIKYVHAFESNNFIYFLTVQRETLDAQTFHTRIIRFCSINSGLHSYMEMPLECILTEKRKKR

For `Cn1cc(-c2cnc3c(nnn3C[C@@H]3CN(c4ncc(N5CC(CN6CCN(c7ccc8c(=O)n(C9CCC(=O)NC9=O)ncc8c7)CC6)C5)cn4)CCO3)n2)cn1` (stereo partly drawn) [Example D-1, 3-(6-(4-((1-(2-((S)-2-((5-(1-methyl-1H-pyrazole-4-yl)-1H-[1,2,3]triazolo[4,5-b]pyrazine-1-yl)methyl)morpholine-5-il)azetidin-3-il)methyl)piperazine-1-il)piperazine-1-il)1-oxopthalazine-2(1H)-day)piperidine-2,6-dione], the DC50 was more than 1000 nM in assay [1], not above 100 nM in assay [5] and not above 100 nM in assay [6]. Besides, the IC50 in assay [2], in assay [3] and in assay [4] was not above 100 nM throughout.
In the case of `Cc1nn(C2CCC(=O)NC2=O)c(=O)c2ccc(N3CCN(CC4CCN(CC5CN(c6cnc(N7CCO[C@H](Cn8nnc9nc(-c%10cnn(C)c%10)cnc98)C7)nc6)C5)CC4)CC3)cc12` (stereo partly drawn) [Example D-4], the 50% degradation concentration (DC50) in assay [1] was not above 1000 nM; in assay [5] it was not above 100 nM; in assay [6], not above 100 nM. Also, the concentration for half-maximal inhibition (IC50) in assay [2], in assay [3] and in assay [4] was not above 100 nM throughout.
For `Cn1cc(-c2cnc3c(nnn3C[C@@H]3CN(c4ncc(N5CC(CN6CCN(CC7CCN(c8ccc(NC9CCC(=O)NC9=O)cc8F)CC7)CC6)C5)cn4)CCO3)n2)cn1` (stereo partly drawn) [Example D-5], the half-maximal degradation concentration (DC50) in assay [1], in assay [5] and in assay [6] was more than 1000 nM throughout. The IC50 in assay [2] is not above 100 nM; in assay [3] it was not above 100 nM; in assay [4], more than 1000 nM.
As to `Cc1nn(C2CCC(=O)NC2=O)c(=O)c2ccc(N3CCO[C@@H](COc4cnc(-c5cccc(Cn6nc(-c7cccc(C#N)c7)ccc6=O)c5)nc4)C3)cc12` (stereo partly shown) [Example E-1], the 50% degradation concentration (DC50) in assay [1] was more than 1000 nM; in assay [5], not above 100 nM; in assay [6] it was not above 100 nM. Also, the concentration for half-maximal inhibition (IC50) in assay [2], in assay [3] and in assay [4] was not above 100 nM throughout.
Take `N#Cc1cccc(-c2ccc(=O)n(Cc3cccc(-c4ncc(OC[C@H]5CN(c6ccc7c(=O)n(C8CCC(=O)NC8=O)ncc7c6)CCO5)cn4)c3)n2)c1` (stereo partly drawn) [Example E-2, 3-(1-(3-(5-(((2R)-4-(2-(2,6-dioxopiperidin-3-yl)-1-oxo-1,2-dihydrophthalazine-6-yl)morpholine-2-yl)methoxy)pyrimidin-2-yl)benzyl)6-oxo-1,6-dihydropyridazine-3-il)benzonitrile]: the 50% inhibitory concentration (IC50) in assay [2] and in assay [4] was not above 100 nM each time. Besides, the half-maximal degradation concentration (DC50) in assay [5] and in assay [6] was not above 100 nM throughout.
Take `N#Cc1cccc(-c2ccc(=O)n(Cc3cccc(-c4ncc(OC[C@@H]5CN(c6ccc(NC7CCC(=O)NC7=O)cc6F)CCO5)cn4)c3)n2)c1` (stereo partly drawn) [Example E-3, 3-(1-(3-(5-(((2R)-4-(4-((2,6-dioxopiperidin-3-yl)amino)-2-fluorophenyl)morpholine-2-yl)methoxy)pyrimidine-2-yl)benzyl)6-oxo-1,6-dihydropyridazine-3-il)benzonitrile]: the DC50 in assay [1] and in assay [5] was more than 1000 nM in each case. Besides, the IC50 in assay [2] and in assay [3] was not above 100 nM throughout.
For the molecule `N#Cc1cccc(-c2ccc(=O)n(Cc3cccc(-c4ncc(OCCN5CCN(c6ccc7c(=O)n(C8CCC(=O)NC8=O)ncc7c6)CC5)cn4)c3)n2)c1` (stereo not shown) [Example E-4], the half-maximal degradation concentration (DC50) was more than 1000 nM in assay [1], not above 100 nM in assay [5] and not above 100 nM in assay [6]. Besides, the 50% inhibitory concentration (IC50) in assay [2], in assay [3] and in assay [4] was not above 100 nM each time.
Regarding `Cc1nn(C2CCC(=O)NC2=O)c(=O)c2ccc(N3CCN(CCOc4cnc(-c5cccc(Cn6nc(-c7cccc(C#N)c7)ccc6=O)c5)nc4)CC3)cc12` (stereo not shown) [Example E-5], the DC50 in assay [1], in assay [5] and in assay [6] was not above 100 nM throughout. For the same molecule, the 50% inhibitory concentration (IC50) in assay [2], in assay [3] and in assay [4] was not above 100 nM each time.
On to `N#Cc1cccc(-c2ccc(=O)n(Cc3cccc(-c4ncc(OCCN5CCN(c6ccc(NC7CCC(=O)NC7=O)cc6F)CC5)cn4)c3)n2)c1` (stereo not shown) [Example E-6, 3-(1-(3-(5-(2-(4-(4-((2,6-dioxopiperidin-3-yl)amino)2-fluorophenyl)piperazine-1-yl)ethoxy)pyrimidine-2-yl)benzyl)6-oxo-1,6-dihydropyridazine-3-yl)benzonitrile], for which the DC50 in assay [1] and in assay [5] was more than 1000 nM in each case. The IC50 in assay [2] and in assay [3] was not above 100 nM in each case.
As to `N#Cc1cccc(-c2ccc(=O)n(Cc3cccc(-c4ncc(N5CCN(CC6CN(c7ccc(NC8CCC(=O)NC8=O)cc7F)C6)CC5)cn4)c3)n2)c1` (stereo not shown) [Example E-7], the DC50 in assay [1] and in assay [5] was not above 100 nM in each case. The concentration for half-maximal inhibition (IC50) in assay [2] and in assay [3] was not above 100 nM throughout.
Turning to `N#Cc1cccc(-c2ccc(=O)n(Cc3cccc(-c4ncc(N5CCN(CC6CCN(c7ccc(NC8CCC(=O)NC8=O)cc7F)CC6)CC5)cn4)c3)n2)c1` (stereo not shown) [Example E-8], the values for the DC50 in assay [1], in assay [5] and in assay [6] were more than 1000 nM, not above 100 nM and not above 100 nM, respectively. Besides, the half-inhibitory concentration (IC50) in assay [2], in assay [3] and in assay [4] was not above 100 nM each time.
